One assay has as its system naïve human CD8 T cells. Description: Human CD8 T cells IFN-γ assay.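 Note: Naïve human CD8 T cells stimulated with plate-bound anti-CD3 and soluble anti-CD28, IFN-γ in supernatant quantified by AlphaLISA and converted to pg/mL.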 In kind it is cell-based. To be noted: read-out: HuCD8 INFG Normalized EC50.
The next assay concerns Human venous whole blood. Description: Human whole blood IFN-γ assay.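 Note: blood from healthy donors exposed to compound for 1 h before stimulation with anti-CD3 and anti-CD28 at 1 µg/mL each, IFN-γ quantified in supernatant by AlphaLISA.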 In kind it is cell-based.
For the next assay, the target named is T1, human DGKζ (Homo sapiens, UniProt Q13574).
T1 construct: TVMV protease cleavage site (C); Hexa-His (C); made in house; host or cells: Sf9 insect cells (baculovirus, Bac-to-Bac)
T1 sequence (Q13574 with tags, fused parts or gaps isoform Q13574-4): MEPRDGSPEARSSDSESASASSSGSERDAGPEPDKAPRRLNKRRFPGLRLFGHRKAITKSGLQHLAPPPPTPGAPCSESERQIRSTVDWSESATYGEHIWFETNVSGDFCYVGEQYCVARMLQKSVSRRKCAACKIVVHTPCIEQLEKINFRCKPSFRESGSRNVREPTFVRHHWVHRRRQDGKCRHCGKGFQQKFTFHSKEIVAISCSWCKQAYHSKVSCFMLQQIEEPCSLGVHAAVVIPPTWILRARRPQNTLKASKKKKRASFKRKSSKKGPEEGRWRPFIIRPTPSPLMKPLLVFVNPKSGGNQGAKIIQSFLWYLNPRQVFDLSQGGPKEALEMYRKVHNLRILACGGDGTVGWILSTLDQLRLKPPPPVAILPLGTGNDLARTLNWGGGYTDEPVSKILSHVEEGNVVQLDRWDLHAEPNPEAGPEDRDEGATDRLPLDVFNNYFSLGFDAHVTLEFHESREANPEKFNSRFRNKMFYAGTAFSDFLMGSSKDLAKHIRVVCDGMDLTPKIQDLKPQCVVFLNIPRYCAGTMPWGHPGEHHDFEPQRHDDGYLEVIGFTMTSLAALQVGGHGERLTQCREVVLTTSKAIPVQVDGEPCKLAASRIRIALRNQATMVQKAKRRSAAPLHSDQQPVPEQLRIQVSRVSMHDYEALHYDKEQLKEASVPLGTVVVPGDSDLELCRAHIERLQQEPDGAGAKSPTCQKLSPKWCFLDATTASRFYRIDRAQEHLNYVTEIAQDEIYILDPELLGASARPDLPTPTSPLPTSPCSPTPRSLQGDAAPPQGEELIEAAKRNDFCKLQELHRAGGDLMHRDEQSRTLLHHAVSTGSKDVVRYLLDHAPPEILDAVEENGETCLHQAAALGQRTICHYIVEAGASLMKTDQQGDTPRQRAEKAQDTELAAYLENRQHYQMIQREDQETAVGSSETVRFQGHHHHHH
As to the kind of experiment: DGKζ LIPGLO assay (extruded liposome substrate), in vitro DGK inhibition. To be noted: read-out: DGKz LIPGLO IC50. The assay is classed as biochemical.

The next assay addresses T2, human DGKα (Homo sapiens, UniProt P23743).
T2 construct: TVMV protease cleavage site (C); Hexa-His (C); made in house; host or cells: Sf9 insect cells (baculovirus, Bac-to-Bac)
As to the kind of experiment: DGKα LIPGLO assay (extruded liposome substrate), in vitro DGK inhibition. The assay is classed as biochemical. Conditions: read-out: DGKa LIPGLO IC50.

Where [1] appears, read: Homo sapiens, T-cell, 20 h, normalized to 3 μM reference compound with anti-CD3 plus anti-CD28 as 100% activation.
Setting [2] is: Homo sapiens, human whole blood, normalized to 3 μM reference compound with anti-CD3 plus anti-CD28 as 100% activation, read-out: INFg Whole Blood Normalized Agonist EC50.
Where [3] appears, read: human whole blood, normalized to 3 μM reference compound with anti-CD3 plus anti-CD28 as 100% activation, read-out: INFg Whole Blood Normalized Agonist EC50.
Where [4] appears, read: Homo sapiens, 24 h, human whole blood, normalized to 3 μM reference compound with anti-CD3 plus anti-CD28 as 100% activation, read-out: INFg Whole Blood Normalized Agonist EC50.
[5] abbreviates: Homo sapiens, T-cell, 20 h, naïve human CD8 T cells, anti-CD3 plus anti-CD28, 3 μM reference compound = 100% activation.
[6] abbreviates: normalized to 3 μM reference compound with anti-CD3 plus anti-CD28 as 100% activation.

Like-named read-outs stand apart in the source and are kept apart here.

T2 sequence (P23743 with tags, fused parts or gaps): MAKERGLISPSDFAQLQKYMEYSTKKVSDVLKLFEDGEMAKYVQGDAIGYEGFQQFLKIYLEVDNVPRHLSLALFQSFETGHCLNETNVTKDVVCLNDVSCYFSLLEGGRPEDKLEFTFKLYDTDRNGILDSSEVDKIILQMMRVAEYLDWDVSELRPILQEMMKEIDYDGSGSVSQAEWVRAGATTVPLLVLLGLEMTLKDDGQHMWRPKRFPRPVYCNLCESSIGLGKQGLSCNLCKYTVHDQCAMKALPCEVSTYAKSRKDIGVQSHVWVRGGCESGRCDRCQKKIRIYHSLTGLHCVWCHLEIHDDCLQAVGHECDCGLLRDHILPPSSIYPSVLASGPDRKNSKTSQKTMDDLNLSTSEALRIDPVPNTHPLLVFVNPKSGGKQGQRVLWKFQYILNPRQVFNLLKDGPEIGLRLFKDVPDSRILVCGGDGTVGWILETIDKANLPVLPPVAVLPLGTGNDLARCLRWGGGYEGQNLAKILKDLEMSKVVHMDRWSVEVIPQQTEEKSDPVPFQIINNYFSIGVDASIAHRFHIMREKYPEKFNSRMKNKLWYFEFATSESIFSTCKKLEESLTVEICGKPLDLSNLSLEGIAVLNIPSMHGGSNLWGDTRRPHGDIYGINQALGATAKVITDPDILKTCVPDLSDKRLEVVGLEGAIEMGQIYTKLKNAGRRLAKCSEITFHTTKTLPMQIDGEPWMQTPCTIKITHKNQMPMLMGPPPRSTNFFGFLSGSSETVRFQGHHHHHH
Procedure for Human venous whole blood: Human Whole Blood IFN-γ Assay
Human venous whole blood (22.5 μL per well), obtained from healthy donors, was pre-treated with compounds for one hour at 37° C. in a humidified 95% air/5% CO2 incubator. The blood was stimulated with 2.5 μL anti-human CD3 and anti-CD28 mAb at a final concentration of 1 μg/mL each for 24 hours at 37° C. IFN-γ in the supernatants was measured using AlphLISA kit (Cat # AL217).

One may read the EC50 as the concentration at which the effect is half-maximal. For `CCC(c1ccc(F)cc1F)N1C[C@H](C)N(c2cc(=O)n(C)c3ccc(C#N)nc23)C[C@H]1C` (mixture of isomers) [Example 337, 8-((2S,5R)-4-(1-(2,4-difluorophenyl)propyl)-2,5-dimethylpiperazin-1-yl)-5-methyl-6-oxo-5,6-dihydro-1,5-naphthyridine-2-carbonitrile], the EC50 was found to be 0.048 µM in the assay with naïve human CD8 T cells (setting [1]) and 0.44 µM with Human venous whole blood (setting [2]).
The IC50 is the concentration needed to halve the response being measured. Turning to `C[C@@H]1CN(c2cc(=O)n(C)c3ccc(C#N)nc23)[C@@H](C)CN1C(c1ccc(OC(F)(F)F)cc1)c1ccc(F)cn1` (mixture of isomers) [Example 462, 8-((2S,5R)-4-((5-fluoropyridin-2-yl)(4-(trifluoromethoxy)phenyl)methyl)-2,5-dimethylpiperazin-1-yl)-5-methyl-6-oxo-5,6-dihydro-1,5-naphthyridine-2-carbonitrile], the results for the IC50 on human DGKζ (liposome (LIPGLO) assay) and at human DGKα (liposome (LIPGLO) assay) were 1.8 µM and 0.14 µM, respectively. Besides, the EC50 in the assay with naïve human CD8 T cells (setting [1]) is 0.02 µM; in the assay on Human venous whole blood (setting [3]), 0.45 µM.
For `C[C@@H]1CN(c2cc(=O)n(C)c3ccc(C#N)nc23)[C@@H](C)CN1C(c1ccccc1)c1ccc(F)cc1` (mixture of isomers) [Example 182, 8-[(2S,5R)-4-[(4-fluorophenyl)(phenyl)methyl]-2,5-dimethylpiperazin-1-yl]-5-methyl-6-oxo-5,6-dihydro-1,5-naphthyridine-2-carbonitrile], the IC50 turned out to be 1.6 µM at human DGKζ (liposome (LIPGLO) assay) and 0.87 µM at human DGKα (liposome (LIPGLO) assay). Besides, the figures for the half-maximal effective concentration (EC50) in the assay on naïve human CD8 T cells (setting [1]) and in the assay with Human venous whole blood (setting [2]) were 0.03 µM and 0.68 µM, respectively.
On to `C[C@@H]1CN(c2cc(=O)n(C)c3ccc(C#N)nc23)[C@@H](C)CN1C(c1ccc(F)cc1)c1cccc(F)c1` (mixture of isomers) [Example 248, 8-[(2S,5R)-4-[(3-fluorophenyl)(4-fluorophenyl)methyl]-2,5-dimethylpiperazin-1-yl]-5-methyl-6-oxo-5,6-dihydro-1,5-naphthyridine-2-carbonitrile], for which the IC50 at human DGKζ (liposome (LIPGLO) assay) was determined as 0.79 µM; at human DGKα (liposome (LIPGLO) assay) it was 1.3 µM. The EC50 in the assay on naïve human CD8 T cells (setting [1]) came out at 0.053 µM; with Human venous whole blood (setting [4]), 0.71 µM.
For `Cc1ccc(C(c2ccc(Cl)cc2)N2CCN(c3c(C#N)c(=O)n(C)c4ccc(C#N)nc34)C[C@H]2C)cc1` (mixture of isomers) [Example 907], the IC50 at human DGKζ (DGKζ liposome (LIPGLO) assay) came to 1.5 µM; at human DGKα (DGKα liposome (LIPGLO) assay) it was 4.4 µM. The EC50 with naïve human CD8 T cells (setting [5]) was 0.07 µM; with Human venous whole blood (Homo sapiens, 24 h, human whole blood, anti-CD3 plus anti-CD28, 24 hours, 3 μM reference compound = 100% activation, read-out: INFg Whole Blood Normalized Agonist EC50), 0.73 µM.
Turning to `Cn1c(=O)cc(N2CCN(C(c3ccc(F)cc3)c3ccc(F)cc3)C(C(=O)NC3CC3)C2)c2nc(C#N)ccc21` (single isomer, unassigned) [Example 47, 1-(bis(4-fluorophenyl)methyl)-4-(6-cyano-1-methyl-2-oxo-1,2-dihydro-1,5-naphthyridin-4-yl)-N-cyclopropylpiperazine-2-carboxamide], the IC50 at human DGKζ (liposome (LIPGLO) assay) worked out at 5.2 µM; on human DGKα (liposome (LIPGLO) assay) it was 260 µM. Moreover, the EC50 in the assay on naïve human CD8 T cells (setting [6]) was 10 µM; with Human venous whole blood (setting [4]), 5 µM.
With `COc1cc(F)ccc1C(N1C[C@H](C)N(c2cc(=O)n(C)c3ccc(C#N)nc23)C[C@H]1C)C(C)(C)C` (single isomer, unassigned) [Example 185], the values for the IC50 at human DGKζ (liposome (LIPGLO) assay) and on human DGKα (liposome (LIPGLO) assay) were 0.21 µM and 4.4 µM, respectively. In addition, the results for the half-maximal effective concentration (EC50) in the assay on naïve human CD8 T cells (setting [1]) and in the assay on Human venous whole blood (setting [3]) were 10 µM and 2 µM, respectively.
For the compound `COc1cc(F)ccc1C(N1C[C@H](C)N(c2cc(=O)n(C)c3ccc(C#N)nc23)C[C@H]1C)C(C)(C)C` (single isomer, unassigned) [Example 186], the IC50 on human DGKζ (liposome (LIPGLO) assay) was found to be 14 µM; at human DGKα (liposome (LIPGLO) assay), 3.3 µM. Also, the EC50 came to 10 µM in the assay on naïve human CD8 T cells (setting [6]) and 20 µM with Human venous whole blood (setting [3]).
For `C[C@@H]1CN(c2cc(=O)n(C)c3ccc(C#N)nc23)[C@@H](C)CN1C(c1ccc(F)cc1)c1ncccc1F` (single isomer, unassigned) [Example 187] the same measures were 1.3 µM, 0.18 µM, 0.11 µM and 1.4 µM.
Regarding `C[C@@H]1CN(c2cc(=O)n(C)c3ccc(C#N)nc23)[C@@H](C)CN1C(c1ccc(F)cc1)c1ncccc1F` (single isomer, unassigned) [Example 188], the IC50 was found to be 3.8 µM at human DGKζ (liposome (LIPGLO) assay) and 0.69 µM at human DGKα (liposome (LIPGLO) assay). Moreover, the EC50 with naïve human CD8 T cells (setting [6]) amounted to 0.014 µM; in the assay on Human venous whole blood (setting [3]) it was 0.66 µM.
For the compound `C[C@@H]1CN(c2cc(=O)n(C)c3ccc(C#N)nc23)[C@@H](C)CN1C(c1ccc(Cl)cc1)c1ncccc1F` (single isomer, unassigned) [Example 189], the IC50 is 0.55 µM on human DGKζ (liposome (LIPGLO) assay) and 0.2 µM at human DGKα (liposome (LIPGLO) assay). The EC50 with naïve human CD8 T cells (setting [1]) was 0.1 µM; in the assay with Human venous whole blood (setting [4]), 1.2 µM.
With `C[C@@H]1CN(c2cc(=O)n(C)c3ccc(C#N)nc23)[C@@H](C)CN1C(c1ccc(Cl)cc1)c1ncccc1F` (single isomer, unassigned) [Example 190], the IC50 came out at 1.1 µM at human DGKζ (liposome (LIPGLO) assay) and 0.22 µM at human DGKα (liposome (LIPGLO) assay). Moreover, the EC50 stood at 0.17 µM with naïve human CD8 T cells (setting [6]) and 0.7 µM with Human venous whole blood (setting [3]).
In the case of `CCc1cc(F)ccc1C(c1ccc(Cl)cc1)N1C[C@H](C)N(c2cc(=O)n(C)c3ccc(C#N)nc23)C[C@H]1C` (single isomer, unassigned) [Example 225], the IC50 on human DGKζ (liposome (LIPGLO) assay) amounted to 0.57 µM. Besides, the EC50 in the assay on naïve human CD8 T cells (setting [1]) was 0.061 µM; with Human venous whole blood (setting [3]), 7.6 µM.
For the compound `CCC(c1ccc(F)cc1F)N1C[C@H](C)N(c2cc(=O)n(C)c3ccc(C#N)nc23)C[C@H]1C` (single isomer, unassigned) [Example 338], the EC50 with naïve human CD8 T cells (setting [1]) was 0.02 µM; in the assay on Human venous whole blood (setting [2]) it was 0.13 µM.
As to `C[C@@H]1CN(c2c(C#N)c(=O)n(C)c3ccc(C#N)nc23)CCN1C(c1ccccc1)c1ccc(Cl)cc1` (single isomer, unassigned) [Example 886], the EC50 in the assay on naïve human CD8 T cells (setting [5]) was 0.0096 µM; in the assay with Human venous whole blood (read-out: INFg Whole Blood Normalized Agonist EC50, human whole blood, anti-CD3 plus anti-CD28, 24 hours, 3 μM reference compound = 100% activation) it was 0.6 µM.
For the compound `Cn1c(=O)cc(N2CCN(C(c3ccc(F)cc3)c3ccc(F)cc3)CC2C(=O)O)c2nc(C#N)ccc21` (stereo not shown) [Example 138, 4-(bis(4-fluorophenyl)methyl)-1-(6-cyano-1-methyl-2-oxo-1,2-dihydro-1,5-naphthyridin-4-yl)piperazine-2-carboxylic acid], the IC50 at human DGKζ (liposome (LIPGLO) assay) came to 95 µM; at human DGKα (liposome (LIPGLO) assay) it was 82 µM. In addition, the EC50 with naïve human CD8 T cells (setting [1]) worked out at 10 µM.
`C[C@@H]1CN(c2c(C#N)c(=O)n(C)c3ccc(Br)nc23)[C@@H](C)CN1C(c1ccc(F)cc1)c1ccc(F)cc1` [Example 158, 4-((2S,5R)-4-(bis(4-fluorophenyl)methyl)-2,5-dimethylpiperazin-1-yl)-6-bromo-1-methyl-2-oxo-1,2-dihydro-1,5-naphthyridine-3-carbonitrile]: the figures for the IC50 on human DGKζ (liposome (LIPGLO) assay) and on human DGKα (liposome (LIPGLO) assay) were 13 µM and 3.6 µM, respectively. Moreover, the EC50 in the assay on naïve human CD8 T cells (setting [1]) amounted to 0.11 µM.
In the same order, the values of `Cn1c(=O)cc(N2CCN(C(c3ccc(F)cc3)c3ccc(F)cc3)C(C)(C)C2)c2nc(C#N)ccc21` [Example 171, 8-(4-(bis(4-fluorophenyl)methyl)-3,3-dimethylpiperazin-1-yl)-5-methyl-6-oxo-5,6-dihydro-1,5-naphthyridine-2-carbonitrile] are 94 µM, 0.24 µM and 10 µM.
Regarding `C[C@@H]1CN(c2cc(=O)n(C)c3ccc(C#N)nc23)[C@@H](C)CN1C(c1ccccc1)c1ccccc1` [Example 237, 8-[(2S,5R)-4-(diphenylmethyl)-2,5-dimethylpiperazin-1-yl]-5-methyl-6-oxo-5,6-dihydro-1,5-naphthyridine-2-carbonitrile], the IC50 was found to be 1.4 µM on human DGKζ (liposome (LIPGLO) assay) and 0.93 µM at human DGKα (liposome (LIPGLO) assay). In the assay on naïve human CD8 T cells (setting [1]), the EC50 was 0.039 µM.
Take `COc1ccc2c(n1)c(N1C[C@@H](C)N(C(c3ccc(F)cc3)c3ccc(Cl)cc3)C[C@@H]1C)cc(=O)n2C` (stereo partly drawn) [Example 240, 4-[(2S,5R)-4-[(4-chlorophenyl)(4-fluorophenyl)methyl]-2,5-dimethylpiperazin-1-yl]-6-methoxy-1-methyl-1,2-dihydro-1,5-naphthyridin-2-one]: the IC50 at human DGKζ (liposome (LIPGLO) assay) is 20 µM; at human DGKα (liposome (LIPGLO) assay) it was 15 µM. Moreover, the EC50 in the assay with naïve human CD8 T cells (setting [1]) was found to be 12 µM.
For `C[C@@H]1CN(c2cc(=O)n(C)c3ccc(C#N)nc23)[C@@H](C)CN1Cc1c(F)cc(C#N)cc1F` [Example 267, 8-[(2S,5R)-4-[(4-cyano-2,6-difluorophenyl)methyl]-2,5-dimethylpiperazin-1-yl]-5-methyl-6-oxo-5,6-dihydro-1,5-naphthyridine-2-carbonitrile], the IC50 is 1.6 µM at human DGKζ (liposome (LIPGLO) assay) and 0.39 µM at human DGKα (liposome (LIPGLO) assay). Besides, in the assay on naïve human CD8 T cells (setting [1]), the EC50 turned out to be 10 µM.
Consider `C[C@@H]1CN(c2cc(=O)n(C)c3ccc(C#N)nc23)[C@@H](C)CN1C(c1ccc(F)cc1)c1ccccc1F` (stereo partly drawn) [Example 284, 8-[(2S,5R)-4-[(2-fluorophenyl)(4-fluorophenyl)methyl]-2,5-dimethylpiperazin-1-yl]-5-methyl-6-oxo-5,6-dihydro-1,5-naphthyridine-2-carbonitrile], for which the EC50 came to 0.036 µM in the assay on naïve human CD8 T cells (setting [1]) and 0.78 µM in the assay with Human venous whole blood (Homo sapiens, 24 h, read-out: INFg Whole Blood Normalized Agonist EC50, human whole blood, normalized to 3 μM reference compound with anti-CD3 plus anti-CD28 as 100% activation).

The record behind these values is patent publication US10669272B2, “Substituted naphthyridinone compounds useful as T cell activators” (BRISTOL-MYERS SQUIBB COMPANY, priority 2018, dated 2020).
